Test results reported in patent US20210179578A1, “OX1 ANTAGONISTS” (Heptares Therapeutics Limited, priority 2017, published 2021).

How the values were obtained:
human OX1 receptor = molecular target: T1, human OX1 receptor (Homo sapiens, UniProt O43613); test: [3H]-radioligand binding assay, OX1; set-up: made in house; host or cells: SF21 insect cells (baculovirus; P0 virus made in SF9); settings: [3H]-radioligand binding, human OX1 membranes; read-out: pKi average OX1 (converted)
T1 sequence (O43613 1-425): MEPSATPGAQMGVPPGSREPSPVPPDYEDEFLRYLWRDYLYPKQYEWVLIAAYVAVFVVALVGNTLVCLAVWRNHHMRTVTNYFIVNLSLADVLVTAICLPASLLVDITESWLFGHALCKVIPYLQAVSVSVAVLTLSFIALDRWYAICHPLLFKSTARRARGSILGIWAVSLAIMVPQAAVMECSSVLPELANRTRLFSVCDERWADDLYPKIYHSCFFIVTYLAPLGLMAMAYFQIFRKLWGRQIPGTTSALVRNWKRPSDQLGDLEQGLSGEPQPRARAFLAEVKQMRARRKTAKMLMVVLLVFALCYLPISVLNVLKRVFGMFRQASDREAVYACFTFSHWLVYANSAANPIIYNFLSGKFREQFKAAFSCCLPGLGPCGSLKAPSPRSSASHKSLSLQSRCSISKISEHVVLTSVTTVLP
Procedure, shortened: (§1)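 Membranes from baculovirus-infected SF21 cells expressing human OX1 (6.4 μg protein/well) or OX2 (1.4 μg/well) were incubated 90 min at rt in HEPES pH 7.4 saline buffer with a [3H]-benzothiadiazinone dioxide radioligand, then filtered and counted. NSB defined with 3.33 μM benzoxazolyl-diazepane methanone; Ki from IC50 by Cheng-Prusoff.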

human OX2 receptor = molecular target: T2, human OX2 receptor (Homo sapiens, UniProt O43614); test: [3H]-radioligand binding assay, OX2; set-up: made in house; host or cells: SF21 insect cells (baculovirus; P0 virus made in SF9); settings: [3H]-radioligand binding, human OX2 membranes; read-out: pKi average OX2 (converted)
T2 sequence (O43614 1-444): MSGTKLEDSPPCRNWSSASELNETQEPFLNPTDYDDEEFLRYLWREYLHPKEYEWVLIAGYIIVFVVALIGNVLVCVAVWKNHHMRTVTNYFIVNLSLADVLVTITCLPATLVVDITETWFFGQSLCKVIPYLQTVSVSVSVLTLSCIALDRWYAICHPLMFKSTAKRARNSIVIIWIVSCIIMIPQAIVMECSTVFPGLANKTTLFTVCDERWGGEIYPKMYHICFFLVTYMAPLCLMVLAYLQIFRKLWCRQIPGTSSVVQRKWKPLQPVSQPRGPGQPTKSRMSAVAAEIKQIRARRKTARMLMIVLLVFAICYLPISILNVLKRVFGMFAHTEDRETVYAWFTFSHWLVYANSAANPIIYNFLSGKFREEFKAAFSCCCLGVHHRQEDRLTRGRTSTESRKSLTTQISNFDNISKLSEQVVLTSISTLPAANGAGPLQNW
Procedure, shortened: as §1

| Structure (SMILES) | Ki (human OX1 receptor) | Ki (human OX2 receptor) |
| --- | --- | --- |
| Cc1ncc(C2CCc3c(F)cccc3N(Cc3c(F)cc(Br)cc3F)C2=O)cc1C(C)(F)F (single isomer, unassigned) [Example 36, 1-(4-bromo-2,6-difluorobenzyl)-3-[5-(1,1-difluoroethyl)-6-methylpyridin-3-yl]-6-fluoro-1,3,4,5-tetrahydro-2H-1-benzazepin-2-one] | 0.631 nM | 200 nM |
| Cc1ncc(C2CCc3c(F)cccc3N(Cc3c(F)cc(Br)cc3F)C2=O)cc1C(C)(F)F (single isomer, unassigned) [Example 35, 1-(4-bromo-2,6-difluorobenzyl)-3-[5-(1,1-difluoroethyl)-6-methylpyridin-3-yl]-6-fluoro-1,3,4,5-tetrahydro-2H-1-benzazepin-2-one] | 2 nM | > 126 nM |
| CCCc1cc(F)c(CN2C(=O)N(c3cnc(C)c(C(C)(F)F)c3)CCc3c(F)cccc32)c(F)c1 [Example 34, 3-[5-(1,1-difluoroethyl)-6-methylpyridin-3-yl]-1-(2,6-difluoro-4-propylbenzyl)-6-fluoro-1,3,4,5-tetrahydro-2H-1,3-benzodiazepin-2-one] | 1.58 nM | > 251 nM |
| COc1ncc(C2CCc3c(F)cccc3N(Cc3c(F)cc(Br)cc3F)C2=O)cc1C(C)(F)F (single isomer, unassigned) [Example 12, 1-(4-bromo-2,6-difluorobenzyl)-3-[5-(1,1-difluoroethyl)-6-methoxypyridin-3-yl]-6-fluoro-1,3,4,5-tetrahydro-2H-1-benzazepin-2-one] | 0.398 nM | > 398 nM |
| CCCc1cc(F)c(CN2C(=O)N(c3ccc(C)c(S(C)(=O)=O)c3)CCc3c(F)cccc32)c(F)c1 [Example 28, 1-(2,6-difluoro-4-propylbenzyl)-6-fluoro-3-[4-methyl-3-(methylsulfonyl)phenyl]-1,3,4,5-tetrahydro-2H-1,3-benzodiazepin-2-one] | 2 nM | > 316 nM |
